Tested on: S. aureus ATCC 25923
Experiment: Time-kill curves
Type: cell-based, Staphylococcus aureus
Experimental: FIG. 2 presents the time-kill curve of compound 3f (tested at MIC×4, 8 or 16) obtained with S. aureus ATCC 25923.
The method described by Motyl et al. [M. Motyl, K. Dorso, J. Barrett, R. Giacobbe, Basic Microbiological Techniques Used in Antibacterial Drug Discovery. Current Protocols in Pharmacology. UNIT 13A.3. January, 2006] was used.
Killing curves corresponded to the measure of the kinetic of bactericidal activity of indolic compounds over time (time-kill curves) or after 18 h incubation of cultures according to different drug concentrations (concentration-killing curves). Sterile tubes were inoculated with: 1/sterile Mueller Hinton broth, to serve as negative control; 2/a drug-free bacterial inoculum, to serve as a growth control; 3/a bacterial inoculum (10^5 CFU/mL of final concentration) with various concentrations of the tested indolic compound. The tubes were incubated at 37° C. with agitation (50 rpm). Bacterial inocula are determined in each tube using the CFU count method at the beginning of the experiments, and then after 18 h for concentration-killing curves, or after 1 h, 2 h, 4 h, 8 h and 18 h for time-kill curves. A significant bactericidal effect corresponds to reduction of the initial bacterial load of 3 logs or more at any time of incubation.

CC(C)(C)OC(=O)NCC(NC(=O)c1c[nH]c2ccc(Br)cc12)c1c[nH]c2ccc(Br)cc12 (centres unmarked) [Compound 3f, tert-Butyl(2-(5-bromo-1H-indol-3-yl)-2-(5-bromo-1H-indolyl-3-carboxamido)ethyl)carbamate]
bacterial regrowth (time-kill curve) (4×MIC, incubation prolonged to 18 h): progressive bacterial regrowth | bactericidal activity (time-kill curve) (after 8 h incubation, 4×, 8× and 16× the MIC): significant bactericidal activity

— patent US9676715B2, “Bis-indolic derivatives, a process for preparing the same and their uses as a drug” (UNIVERSITE JOSEPH FOURIER, priority 2011, dated 2017)
